This is an account of results in publication PMC12069643, “Structural insights into the selective recognition of RF-amide peptides by neuropeptide FF receptor 2” (EMBO Reports, 2025).

Holding throughout (test): GloSensor forskolin-stimulated cAMP assay, NPFFR2 mutants
Holding throughout (assay type): cell-based
(In general: Cyclic AMP is a second messenger, typically raised through Gs and lowered through Gi signalling.)

The target of assay [1] is T1, NPFFR2 mutants (Homo sapiens, UniProt Q9Y5X5, R318A).
T1 construct: expressed in transfected cells; host or cells: HEK293T (pcDNA3.1 NPFFR2 mutants)
T1 sequence (Q9Y5X5 103-522 R318A): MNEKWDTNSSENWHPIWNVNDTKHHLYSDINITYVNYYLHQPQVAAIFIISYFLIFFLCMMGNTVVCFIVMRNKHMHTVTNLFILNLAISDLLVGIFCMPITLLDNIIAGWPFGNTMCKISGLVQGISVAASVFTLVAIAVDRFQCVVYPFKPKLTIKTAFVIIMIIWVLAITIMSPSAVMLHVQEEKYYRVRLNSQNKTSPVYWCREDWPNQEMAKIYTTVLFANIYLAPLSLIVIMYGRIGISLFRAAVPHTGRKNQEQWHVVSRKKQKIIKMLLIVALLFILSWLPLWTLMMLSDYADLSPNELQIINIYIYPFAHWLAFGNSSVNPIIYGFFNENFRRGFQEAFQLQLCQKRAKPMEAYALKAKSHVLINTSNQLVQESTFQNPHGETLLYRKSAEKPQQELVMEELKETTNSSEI
Particulars: NPFFR2 R2165.35A, HEK293T, three independent experiments. The source says: (§1) Figure 2 Interaction of hNPSF with NPFFR2. (A) Residues participating in the interactions between hNPSF and NPFFR2 in the transmembrane (TM) binding pocket are shown as sticks. Dashed lines indicate polar interactions and hydrogen bonds between residues. Zoomed-in views highlighting interactions of the C-terminal segment (residues −1 to −4, PQRF), middle segment (residues −5 to −8, FLFQ), and the N-terminal segment (residues −9 to −11, SQA) of hNPSF are enclosed in red, blue, and yellow boxes, respectively. (B) NPFFR2 residues interacting with hNPSF were mutated to alanine, and the impact of each mutation on the EC50 value (ΔpEC50) was investigated using a forskolin-stimulated cAMP assay, after confirming surface expression of each mutant by an ELISA-based surface expression assay (Appendix Fig. S5). Three independent experiments (with technical triplicates) were conducted for each mutant. The bar graphs represent the mean of ΔpEC50 values from each experiment, with error bars indicating SEM. Statistical analyses were performed using ordinary one-way ANOVA followed by Dunnett’s test, comparing to the wild-type response. ns (not significant, P > 0.05); *P < 0.05; **P < 0.01; ***P < 0.001. Source data are available online for this figure.
(§2) HEK293T cells were seeded at a density of 6 × 10^5 cells per well in a six-well cell culture plate (SPL) and co-transfected with expression plasmids encoding GloSensor™ and each NPFFR construct, using 1 µg to 4 µg of DNA per well according to the Lipofectamine™ 2000 Transfection Reagent (Invitrogen) protocol. After 48 h of incubation under standard conditions (37 °C, 5% CO2), the cells were detached using Accutase solution (Sigma-Aldrich) and washed with PBS. The cells were then pelleted by centrifugation, resuspended in CO2-independent medium (Gibco) supplemented with Firefly D-Luciferin (0.5 mg/ml, NanoLight), and distributed into a 96-well white plate (SPL). After a 2-hour incubation, serially diluted ligands and 0.5 μM forskolin were added to each well to detect ligand-induced signaling. Luminescence signals were measured using a Mithras LB940 instrument (Berthold) with a measurement time of 1 s per well.
(§3) Data from the GloSensor^TM cAMP signaling assays were analyzed using GraphPad Prism with a three-parameter logistic model to fit concentration-response curves for both wild-type (WT) and mutant receptors. Mutant expression levels and DNA amounts were adjusted to match WT conditions. ΔpEC50 values were calculated by subtracting the log EC50 of the WT receptor from that of each mutant. Results are presented as mean ± SEM from three independent biological replicates, each performed in duplicate or more. Error bars represent the SEM. Statistical significance was assessed using one-way ANOVA, followed by Dunnett’s tests comparisons to the WT receptor. Significance levels were reported as follows: ns (not significant, P > 0.05); *P < 0.05; **P < 0.01; ***P < 0.001.
(§4) Appendix Figure S5. GloSensorTM cAMP assays of mutants and wild-type NPFFR2.
(§5) The dose-response of cAMP assay data for each mutant (red) presented in Fig. 2B are compared against the wild-type NPFFR2 (blue). Each experiment was conducted after adjusting the mutant's expression level to that of the wild-type NPFFR2 (Appendix Fig. S3), and pcDNA3.1 was used to match the total amount of DNA transfected. Data points represent mean values from three independent experiments (each with technical triplicate), with error bars indicating SEM. Raw data were normalized to the vehicle -treated (0%) and 0.5 μM forskolin-treated (100%) responses.
(§6) (% of forskolin stimulation) […]

Assay [2] addresses T2, NPFFR2 mutants (Homo sapiens, UniProt Q9Y5X5, E310A).
T2 construct: expressed in transfected cells; host or cells: HEK293T (pcDNA3.1 NPFFR2 mutants)
Particulars: NPFFR2 E20845.52A, HEK293T, three independent experiments.
Source text: as §1, §2, §3, §4, §5, §6

The target in assay [3] is T3, NPFFR2 mutants (Homo sapiens, UniProt Q9Y5X5, F425A).
T3 construct: expressed in transfected cells; host or cells: HEK293T (pcDNA3.1 NPFFR2 mutants)
T3 sequence (Q9Y5X5 103-522 F425A): as the sequence (Q9Y5X5 103-522 R318A) above, with A216R, F323A counted along it
Particulars: NPFFR2 F3237.43A, HEK293T, three independent experiments.
Source text: as §1, §2, §3, §4, §5, §6

For assay [4], the target named is T4, NPFFR2 mutants (Homo sapiens, UniProt Q9Y5X5, W213A).
T4 construct: expressed in transfected cells; host or cells: HEK293T (pcDNA3.1 NPFFR2 mutants)
T4 sequence (Q9Y5X5 103-522 W213A): as the sequence (Q9Y5X5 103-522 R318A) above, with W111A, A216R counted along it
Particulars: NPFFR2 W11123.50A, HEK293T, three independent experiments.
Source text: as §1, §2, §3, §4, §5, §6

For assay [5], the target named is T5, NPFFR2 mutants (Homo sapiens, UniProt Q9Y5X5, H421A).
T5 construct: expressed in transfected cells; host or cells: HEK293T (pcDNA3.1 NPFFR2 mutants)
T5 sequence (Q9Y5X5 103-522 H421A): as the sequence (Q9Y5X5 103-522 R318A) above, with A216R, H319A counted along it
Particulars: NPFFR2 H3197.39A, HEK293T, three independent experiments.
Source text: as §1, §2, §3, §4, §5, §6

Assay [6] has as its target T6, NPFFR2 mutants (Homo sapiens, UniProt Q9Y5X5, I414S).
T6 construct: expressed in transfected cells; host or cells: HEK293T (pcDNA3.1 NPFFR2 mutants)
As to conditions: NPFFR2 I3127.32S, HEK293T, three independent experiments.
Source text: as §1, §2, §3, §4, §5, §6

In assay [7] the target is T7, NPFFR2 mutants (Homo sapiens, UniProt Q9Y5X5, Y321A).
T7 construct: expressed in transfected cells; host or cells: HEK293T (pcDNA3.1 NPFFR2 mutants)
T7 sequence (Q9Y5X5 103-522 Y321A): as the sequence (Q9Y5X5 103-522 R318A) above, with A216R, Y219A counted along it
Particulars: NPFFR2 Y2195.38A, HEK293T, three independent experiments.
Source text: as §1, §2, §3, §4, §5, §6

The target of assay [8] is T8, NPFFR2 mutants (Homo sapiens, UniProt Q9Y5X5, L141A).
T8 construct: expressed in transfected cells; host or cells: HEK293T (pcDNA3.1 NPFFR2 mutants)
T8 sequence (Q9Y5X5 103-522 L141A): as the sequence (Q9Y5X5 103-522 R318A) above, with L39A, A216R counted along it
As to conditions: NPFFR2 L39NtA, HEK293T, three independent experiments.
Source text: as §1, §2, §3, §4, §5, §6

For assay [9], the target named is T9, NPFFR2 mutants (Homo sapiens, UniProt Q9Y5X5, N413A).
T9 construct: expressed in transfected cells; host or cells: HEK293T (pcDNA3.1 NPFFR2 mutants)
T9 sequence (Q9Y5X5 103-522 N413A): as the sequence (Q9Y5X5 103-522 R318A) above, with A216R, N311A counted along it
Particulars: NPFFR2 N3117.31A, HEK293T, three independent experiments.
Source text: as §1, §2, §3, §4, §5, §6

For assay [10], the target named is T10, NPFFR2 mutants (Homo sapiens, UniProt Q9Y5X5, I414A).
T10 construct: expressed in transfected cells; host or cells: HEK293T (pcDNA3.1 NPFFR2 mutants)
T10 sequence (Q9Y5X5 103-522 I414A): as the sequence (Q9Y5X5 103-522 R318A) above, with A216R, I312A counted along it
As to conditions: NPFFR2 I3127.32A, HEK293T, three independent experiments.
Source text: as §1, §2, §3, §4, §5, §6

In assay [11] the target is T11, NPFFR2 mutants (Homo sapiens, UniProt Q9Y5X5, V305A).
T11 construct: expressed in transfected cells; host or cells: HEK293T (pcDNA3.1 NPFFR2 mutants)
T11 sequence (Q9Y5X5 103-522 V305A): as the sequence (Q9Y5X5 103-522 R318A) above, with V203A, A216R counted along it
Particulars: NPFFR2 V203ECL2A, HEK293T, three independent experiments.
Source text: as §1, §2, §3, §4, §5, §6

The target of assay [12] is T12, NPFFR2 mutants (Homo sapiens, UniProt Q9Y5X5, Q227A).
T12 construct: expressed in transfected cells; host or cells: HEK293T (pcDNA3.1 NPFFR2 mutants)
T12 sequence (Q9Y5X5 103-522 Q227A): as the sequence (Q9Y5X5 103-522 R318A) above, with Q125A, A216R counted along it
As to conditions: NPFFR2 Q1253.32A, HEK293T, three independent experiments.
Source text: as §1, §2, §3, §4, §5, §6

T6 sequence (Q9Y5X5 103-522 I414S): as the sequence (Q9Y5X5 103-522 R318A) above, with A216R, I312S counted along it
T2 sequence (Q9Y5X5 103-522 E310A): as the sequence (Q9Y5X5 103-522 R318A) above, with E208A, A216R counted along it

As a reminder, the Emax is the size of the effect at its maximum, as opposed to the concentration needed. As a reminder, the EC50 is the concentration at which the effect is half-maximal. High values mean a need for much substance, low ones an effect from little substance. Turning to `CC(C)C[C@H](NC(=O)[C@H](Cc1ccccc1)NC(=O)[C@H](C)NC(=O)[C@H](CCC(N)=O)NC(=O)[C@@H](N)CO)C(=O)N[C@@H](Cc1ccccc1)C(=O)N[C@@H](CCC(N)=O)C(=O)N1CCC[C@H]1C(=O)N[C@@H](CCC(N)=O)C(=O)N[C@@H](CCCNC(=N)N)C(=O)N[C@@H](Cc1ccccc1)C(N)=O` [hNPSF], the Emax was found to be 85 ± 3% on NPFFR2 mutants [1] (HEK-293T); 29 ± 11% on NPFFR2 mutants [2] (HEK-293T); 81 ± 3% on NPFFR2 mutants [3] (HEK-293T); 78 ± 5% on NPFFR2 mutants [4] (HEK-293T); 57 ± 2% at NPFFR2 mutants [5] (HEK-293T); 75 ± 3% at NPFFR2 mutants [6] (HEK-293T). Moreover, the Emax on NPFFR2 mutants [7] (HEK-293T) worked out at 72 ± 3%; on NPFFR2 mutants [8] (HEK-293T), 70 ± 3%; at NPFFR2 mutants [9] (HEK-293T) it was 69 ± 8%; on NPFFR2 mutants [10] (HEK-293T) it was 63 ± 3%; on NPFFR2 mutants [11] (HEK-293T), 78 ± 3%; at NPFFR2 mutants [12] (HEK-293T), 59 ± 4%. The EC50 on NPFFR2 mutants [1] was 0.01 µM; on NPFFR2 mutants [2], 3.98 µM; at NPFFR2 mutants [3] it was 0.398 µM; on NPFFR2 mutants [4], 1.26 µM; at NPFFR2 mutants [5], 0.0631 µM; on NPFFR2 mutants [6] it was 0.0316 µM. Further, the EC50 on NPFFR2 mutants [7] is 0.1 µM; on NPFFR2 mutants [8], 0.01 µM; on NPFFR2 mutants [9], 1.26 µM; at NPFFR2 mutants [10], 0.01 µM; at NPFFR2 mutants [11], 0.2 µM; on NPFFR2 mutants [12], 1.26 µM.
